# Measurements: US9464093B2, “Substituted imidazo[4',5':4,5]cyclopenta[1,2-e]pyrrolo[1,2-a]pyrazines and oxazolo[4',5':4,5]cyclopenta[1,2-e]pyrrolo[1,2-a]pyrazines for treating brain cancer” (Mayo Foundation for Medical Education and Research, priority 2012, dated 2016)
# Entries after “also recorded” stand apart in the source; their conditions may differ.
# What was measured:
# [1] = CNS pharmacokinetic study in mice (microdialysis, CE-UV); type: in vivo, C57BL/6J mice; conditions: 2.5 mg/kg i.p.
# Procedure: The total of 90 male wild type C57BL/6J mice were used in this study. C57BL/6J mice were approximately 2 months of age and weighed 20˜25 g. All mice were housed in a temperature-controlled room ([…]) with a 12:12 light dark cycle (lights on at 0600). Purina 5001 Rodent Chow and tap water were available ad libitum at all times. Mouse use was approved by Mayo Foundation Institutional Animal Use and Care Committee (IACUC) and was consistent with NIH Guide for the Care and Use of Laboratory Animals. Agelastatin A was synthesized by Professor Takehiko Yoshimitsu at Graduate School of Pharmaceutical Sciences, Osaka University, Osaka, Japan. Professor Yoshimitsu has described details on the synthesis of this compound. Purity as determined by NMR spectra is >99%.
# A total of five mice were used in microdialysis experiments. On the day of surgery, mice were anesthetized with gasiform isoflurane (1% isoflurane in a mixture of 20% oxygen and 80% nitrogen gas) and immobilized in a stereotaxic frame (KOPF Instruments, Tujunga, Calif.). […]
# Briefly, the capillaries were preconditioned with 1 M sodium hydroxide for 2 min, water for 2 min and running buffer [100 mmol/1 solution of ammonium acetate (adjusted to pH 3.1 with acetic acid)-acetonitrile (50:50, v/v)] for 3 min. […] CNS penetration was determined as the ratio of CSF and blood area under the curve (AUC).
# NFkB signaling = assay: In vivo NFkB signaling of Raji cells implanted in murine brain (BLI); design: species or system athymic mice; conditions: 2.5 mg/kg and 5 mg/kg intraperitoneally the day after implantation
# Procedure: An in-vivo experiment was also performed to assess impact of Agelastatin A on NFkB signaling in Raji cells implanted inside the murine brain. In serum free medium, Raji cells were transfected with NFkB reporter system. 25,000 cells were intracerebrally injected into athymic mice. […] Bioluminescence imaging (BLI) of NFkB activity of intracerebral Raji lymphoma cells were measured on day 4 post intracerebral implantation.
# Raji lymphoma cells [2] = assay: Raji orthotopic murine CNS lymphoma model; type: in vivo, athymic mice; conditions: 1, 2.5 or 5 mg/kg i.p. for four days; vs vehicle control
# Procedure: Athymic mice (nu/nu; 8-10 weeks old) were anesthetized with gasiform isofluorane and 25,000 Raji cells transfected with luciferase (as described in in vitro study) were stereotactically injected into the left cerebral hemisphere at coordinates (AP: 0.5 mm, LM: 2.5 mm, DV: 3 mm) from the bregma and skull at a volume of 5 μl and at a rate of 1 μl/min. The needle was left in place for 5 min after injection.
# BLI was conducted using a Xenogen Lumina optical imaging system (Caliper Life Sciences, Hopkinton, Mass.). Mice were anesthetized with isofluorane before intraperitoneal injections of luciferin at a dose of 150 mg/kg, providing a saturating substrate concentration for luciferase enzyme. Peak luminescent signals were recorded 10 minutes after luciferin injection. Regions of interest encompassing the intracranial area of signal were defined using Living Image software, and the total photons/s/steradian/cm^2 was recorded.
# Raji murine CNS lymphoma model was created as described in in vivo study section. After bioluminesence imaging (BLI) scanning on day 4 post intracerebral injection, animals were randomly assigned to four different groups. […] […] BLI was used for real time monitoring of tumor growth. Differences in tumor growth were statistically analyzed by ANOVA.
# Raji lymphoma cells [3] = assay: Matrigel invasion assay; type: cell-based; conditions: 1 hour pre-treatment with log dilutions
# Procedure: Invasion assays were performed in triplicate using BD Biocoat Matrigel Invasion Chamber (BD Biosciences: Sparks, Md.) according to manufacturer's instructions (8-μm pore-size). Five percent serum was used as a chemoattractant in the bottom chamber. […] Viability of Raji cells was ascertained by Trypan blue test after the treatment with AA. Statistical analysis was performed using two-tailed Student's T-Test.
# Raji lymphoma cells [4] = assay: Intracerebral dissemination of lymphoma cells (CD20 IHC); type: in vivo, athymic mice
# From the text: Paraffin sections (10 μm thick) were fixed and mounted onto glass slides, blocked, and immunostained with antibody to CD20 to identify B lymphoma cells.
# Murine brains harvested from the in-vivo experiments to assess the pre-clinical therapeutic activity of AA were studied by IHC. CD20-positive lymphoma cells were counted in the cerebral hemisphere contralateral to the tumor implantation side for dissemination in lateral, anterior, and posterior directions by ScanScope XT slide scanner and image analysis system (Aperio Spectrum, Vista, Calif.). One-way ANOVA was used to determine the statistical significance of the difference between the treated group and untreated control group.
# Raji lymphoma cells [5] = assay: Cell proliferation assay, Raji lymphoma cells (Example 3); type: cell-based; conditions: 100, 500, or 1,000 nM; counted on the third day; vs vehicle
# Procedure: Raji cells were purchased from American Tissue Culture (Manassas, Va.). […] Raji cells infected with lentivirus constructs were grown in selection media containing 2.5 μg/ml puromycin. For experiments, unless specified otherwise, all cells were switched back to maintenance media.
# Two-tailed student T-test was used to analyze significant difference.
structure (smiles),measurement,setting,value
"CN1C(=O)N[C@H]2[C@@H]3NC(=O)c4ccc(Br)n4[C@@H]3C[C@]21O [AA, agelastatin A, reference compound]",penetration into brain and eye tissue compartments,[1],shown to penetrate into the brain and eye tissue compartments; also recorded: can penetrate the brain and eye tissue compartments
same,NFkB signaling activity of Raji cells implanted in the murine brain (BLI),NFkB signaling,can impact the molecular signaling activity (NFkB signaling pathway) in a brain tumor; also recorded: decreased the NFkB signaling activity
same,CNS lymphoma tumor growth (BLI),Raji lymphoma cells [2],significantly decreased the tumor growth; also recorded: therapeutic effect of AA treatment on the CNS lymphoma growth
same,survival (Kaplan-Meier),Raji lymphoma cells [2],significantly prolonged the survival; also recorded: survival prolongation
same,Raji lymphoma cell invasion (Matrigel),Raji lymphoma cells [3],significantly decreased invasiveness; also recorded: blocks Raji lymphoma cell invasion
same,lateral dissemination of lymphoma cells,Raji lymphoma cells [4]; T2 (2.5 mg/kg i.p.) and T3 (5 mg/kg i.p.) groups,decreased lateral dissemination of lymphoma cells
same,lymphoma cell dissemination in the anterior and posterior direction,"Raji lymphoma cells [4]; all the treatment groups (1, 2.5, 5 mg/kg i.p.)",Dissemination of lymphoma cells was decreased
same,dissemination of lymphoma cells in the brain,"Raji lymphoma cells [4]; contralateral brain hemisphere, CD20 IHC",significantly decreased dissemination of lymphoma cells in the brain; also recorded: decreases the dissemination of Raji lymphoma cells inside the brain
same,Raji lymphoma cell proliferation,Raji lymphoma cells [5],significantly suppressed proliferation; also recorded: decreases Raji lymphoma cell proliferation
